Laboratory results published in patent US20120270237A9, “METHODS FOR THE IDENTIFICATION OF KINASE INTERACTING MOLECULES AND FOR THE PURIFICATION OF KINASE PROTEINS” (Cellzone AG, priority 2009, published 2012).

Columns and labels:
Test in all cases: Kinobeads competition binding, HL60 cell lysate
Set-up in all cases: endogenous in cells
Details in all cases: 10 μM free compound
CaMK2d = CaMK2d (Homo sapiens, UniProt Q13557)
Procedure: (§1) To one aliquot of cell lysate 10 μM of the free compound (FIG. 3, CZC31326) was added and allowed to bind to proteins in the lysate. Then the affinity matrix with the immobilized compound (Example 1) was added to capture proteins that were not interacting with the previously added free compound. Beads were separated from the lysate and bead bound proteins were eluted in SDS sample buffer and subsequently separated by SDS-Polyacrylamide gel electrophoresis (FIG. 4). Suitable gel bands were cut out and subjected to in-gel proteolytic digestion with trypsin. The second lysate aliquot was processed identically, however no free compound was added (DMSO solvent control). Peptides originating from samples 1 and 2 were labeled with iTRAQ reagents (iTRAQ 114 and iTRAQ 117) and the combined samples were analyzed with a nano-flow liquid chromatography system coupled online to a tandem mass spectrometer (LC-MS/MS) experiment followed by iTRAQ reporter ion quantification in the MS/MS spectra (Ross et al., 2004. Mol. Cell. Proteomics 3(12):1154-1169). Further experimental protocols can be found in WO2006/134056 and a previous publication (Bantscheff et al., 2007. Nature Biotechnology 25, 1035-1044). Sepharose-beads with the immobilized compound (100 μl beads per pull-down experiment) were equilibrated in lysis buffer and incubated with a cell lysate sample containing 50 mg of protein on an end-over-end shaker (Roto Shake Genie, Scientific Industries Inc.) for 2 hours at 4° C. Beads were collected, transferred to Mobicol-columns (MoBiTech 10055) and washed with 10 ml lysis buffer containing 0.4% NP40 detergent, followed by 5 ml lysis buffer containing 0.2% detergent. To elute bound proteins, 60 μl 2×SDS sample buffer was added to the column. The column was incubated for 30 minutes at 50° C. and the eluate was transferred to a siliconized microfuge tube by centrifugation. Proteins were then alkylated with 108 mM iodoacetamid. Proteins were then separated by SDS-Polyacrylamide electrophoresis (SDS-PAGE). The peptide extracts of samples treated with 10 μM of free compound (CZC31326) and the solvent control (0.5% DMSO) were treated with different variants of the isobaric tagging reagent (iTRAQ Reagents Multiplex Kit, part number 4352135, Applied Biosystems, Foster City, Calif., USA). The iTRAQ reagents are a set of multiplexed, amine-specific, stable isotope reagents that can label peptides on amino groups in up to four different biological samples enabling simultaneous identification and quantitation of peptides. The iTRAQ reagents were used according to instructions provided by the manufacturer. The samples were resuspended in 10 μl 50 mM TEAB solution, pH 8.5 and 10 μl ethanol were added. The iTRAQ reagent was dissolved in 120 μl ethanol and 10 μl of reagent solution were added to the sample. The labeling reaction was performed at room temperature for one hour on a horizontal shaker and stopped by adding 5 μl of 100 mM TEAB and 100 mM glycine in water. The two labeled sampled were then combined, dried in a vacuum centrifuge and resuspended in 10 μl of 0.1% formic acid in water. Relative protein quantitation was performed using peak areas of iTRAQ reporter ion signals essentially as described in an earlier publication (Bantscheff et al., 2007. Nature Biotechnology 25, 1035-1044).

GCK = biological target: T1, GCK (Homo sapiens, UniProt Q12851)
T1 sequence (Q12851 1-820): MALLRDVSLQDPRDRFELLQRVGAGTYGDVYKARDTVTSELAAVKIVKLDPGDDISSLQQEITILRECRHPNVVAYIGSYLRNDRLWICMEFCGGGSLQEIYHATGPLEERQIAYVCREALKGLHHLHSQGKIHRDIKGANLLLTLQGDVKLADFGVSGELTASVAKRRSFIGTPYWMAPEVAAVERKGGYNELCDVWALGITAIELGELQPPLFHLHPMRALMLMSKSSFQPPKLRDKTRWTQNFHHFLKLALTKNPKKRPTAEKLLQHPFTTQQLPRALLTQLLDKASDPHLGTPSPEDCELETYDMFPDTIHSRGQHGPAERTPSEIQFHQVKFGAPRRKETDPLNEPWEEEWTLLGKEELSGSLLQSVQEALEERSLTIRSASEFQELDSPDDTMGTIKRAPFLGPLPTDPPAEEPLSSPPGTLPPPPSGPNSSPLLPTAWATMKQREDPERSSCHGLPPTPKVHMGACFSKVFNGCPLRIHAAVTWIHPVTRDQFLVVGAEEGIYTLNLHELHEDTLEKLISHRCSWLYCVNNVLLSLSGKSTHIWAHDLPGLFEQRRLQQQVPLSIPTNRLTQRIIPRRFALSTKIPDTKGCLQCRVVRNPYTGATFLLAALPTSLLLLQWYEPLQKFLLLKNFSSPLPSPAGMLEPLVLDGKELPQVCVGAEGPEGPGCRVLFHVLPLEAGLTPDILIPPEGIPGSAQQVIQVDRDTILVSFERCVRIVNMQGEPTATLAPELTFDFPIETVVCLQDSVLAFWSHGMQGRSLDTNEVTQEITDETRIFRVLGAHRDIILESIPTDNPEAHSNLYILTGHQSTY
Procedure: as §1

JAK1 = JAK1 (Homo sapiens, UniProt P23458)
Procedure: as §1

JAK2 = JAK2 (Homo sapiens, UniProt O60674)
Procedure: as §1

MAP3K3 = MAP3K3 (Homo sapiens, UniProt Q99759)
Procedure: as §1

CaMK2d, sequence (Q13557 whole entry): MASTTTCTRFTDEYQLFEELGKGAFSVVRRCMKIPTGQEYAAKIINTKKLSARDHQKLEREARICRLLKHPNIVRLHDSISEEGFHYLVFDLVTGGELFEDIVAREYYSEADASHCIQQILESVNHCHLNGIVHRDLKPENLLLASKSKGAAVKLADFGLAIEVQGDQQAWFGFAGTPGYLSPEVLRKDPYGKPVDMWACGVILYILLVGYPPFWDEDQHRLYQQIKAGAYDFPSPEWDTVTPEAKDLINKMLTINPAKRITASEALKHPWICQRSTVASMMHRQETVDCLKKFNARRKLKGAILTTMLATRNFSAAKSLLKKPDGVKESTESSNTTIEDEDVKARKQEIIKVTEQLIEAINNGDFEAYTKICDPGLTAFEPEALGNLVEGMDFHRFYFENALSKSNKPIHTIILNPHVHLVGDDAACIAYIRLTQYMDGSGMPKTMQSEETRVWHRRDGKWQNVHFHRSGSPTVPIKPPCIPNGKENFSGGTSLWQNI
MAP3K3, sequence (Q99759 whole entry): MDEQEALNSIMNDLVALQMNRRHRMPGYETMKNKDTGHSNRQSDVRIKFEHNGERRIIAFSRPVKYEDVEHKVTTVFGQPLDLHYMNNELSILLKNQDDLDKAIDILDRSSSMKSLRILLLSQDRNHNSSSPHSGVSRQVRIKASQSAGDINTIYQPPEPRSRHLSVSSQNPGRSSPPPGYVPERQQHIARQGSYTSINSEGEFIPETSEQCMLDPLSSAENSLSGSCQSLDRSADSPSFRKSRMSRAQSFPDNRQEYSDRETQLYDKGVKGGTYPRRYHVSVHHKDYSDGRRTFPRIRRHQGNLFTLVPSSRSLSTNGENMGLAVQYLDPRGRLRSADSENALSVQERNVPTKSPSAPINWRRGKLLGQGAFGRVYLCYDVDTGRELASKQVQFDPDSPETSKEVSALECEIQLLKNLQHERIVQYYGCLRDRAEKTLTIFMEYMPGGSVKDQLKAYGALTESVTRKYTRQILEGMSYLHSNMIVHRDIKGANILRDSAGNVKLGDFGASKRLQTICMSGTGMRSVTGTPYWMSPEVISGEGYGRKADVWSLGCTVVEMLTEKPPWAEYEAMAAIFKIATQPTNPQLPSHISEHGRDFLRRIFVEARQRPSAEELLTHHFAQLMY
JAK1, sequence (P23458 whole entry): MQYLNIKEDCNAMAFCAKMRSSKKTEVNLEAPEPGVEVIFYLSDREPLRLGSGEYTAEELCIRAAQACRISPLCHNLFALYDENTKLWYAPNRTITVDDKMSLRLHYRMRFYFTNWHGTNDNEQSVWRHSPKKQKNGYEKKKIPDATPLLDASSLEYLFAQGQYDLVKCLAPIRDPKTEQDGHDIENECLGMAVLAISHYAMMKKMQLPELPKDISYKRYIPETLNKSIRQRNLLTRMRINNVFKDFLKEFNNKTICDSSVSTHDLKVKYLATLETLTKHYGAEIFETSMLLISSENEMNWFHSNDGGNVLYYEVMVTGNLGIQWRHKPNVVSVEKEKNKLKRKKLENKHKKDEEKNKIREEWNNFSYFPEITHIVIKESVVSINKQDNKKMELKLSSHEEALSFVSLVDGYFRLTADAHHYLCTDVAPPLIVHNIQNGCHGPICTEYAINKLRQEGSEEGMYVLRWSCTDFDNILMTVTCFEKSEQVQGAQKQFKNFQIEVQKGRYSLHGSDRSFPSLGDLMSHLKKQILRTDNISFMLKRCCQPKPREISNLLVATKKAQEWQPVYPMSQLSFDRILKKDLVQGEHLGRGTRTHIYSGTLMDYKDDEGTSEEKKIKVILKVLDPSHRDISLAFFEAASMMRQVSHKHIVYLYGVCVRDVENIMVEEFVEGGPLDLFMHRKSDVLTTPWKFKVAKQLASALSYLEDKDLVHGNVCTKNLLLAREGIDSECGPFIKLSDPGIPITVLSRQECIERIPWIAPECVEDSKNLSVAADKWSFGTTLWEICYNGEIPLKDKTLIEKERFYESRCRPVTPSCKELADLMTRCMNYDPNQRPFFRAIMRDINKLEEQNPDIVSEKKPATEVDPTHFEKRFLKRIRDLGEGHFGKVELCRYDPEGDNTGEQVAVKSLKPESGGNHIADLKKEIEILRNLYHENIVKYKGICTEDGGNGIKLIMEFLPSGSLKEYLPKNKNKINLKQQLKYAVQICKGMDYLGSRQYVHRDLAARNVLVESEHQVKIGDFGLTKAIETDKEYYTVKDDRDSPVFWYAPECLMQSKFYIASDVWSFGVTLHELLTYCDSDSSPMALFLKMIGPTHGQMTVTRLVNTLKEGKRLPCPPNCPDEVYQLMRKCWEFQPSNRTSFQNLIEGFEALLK
JAK2, sequence (O60674 whole entry): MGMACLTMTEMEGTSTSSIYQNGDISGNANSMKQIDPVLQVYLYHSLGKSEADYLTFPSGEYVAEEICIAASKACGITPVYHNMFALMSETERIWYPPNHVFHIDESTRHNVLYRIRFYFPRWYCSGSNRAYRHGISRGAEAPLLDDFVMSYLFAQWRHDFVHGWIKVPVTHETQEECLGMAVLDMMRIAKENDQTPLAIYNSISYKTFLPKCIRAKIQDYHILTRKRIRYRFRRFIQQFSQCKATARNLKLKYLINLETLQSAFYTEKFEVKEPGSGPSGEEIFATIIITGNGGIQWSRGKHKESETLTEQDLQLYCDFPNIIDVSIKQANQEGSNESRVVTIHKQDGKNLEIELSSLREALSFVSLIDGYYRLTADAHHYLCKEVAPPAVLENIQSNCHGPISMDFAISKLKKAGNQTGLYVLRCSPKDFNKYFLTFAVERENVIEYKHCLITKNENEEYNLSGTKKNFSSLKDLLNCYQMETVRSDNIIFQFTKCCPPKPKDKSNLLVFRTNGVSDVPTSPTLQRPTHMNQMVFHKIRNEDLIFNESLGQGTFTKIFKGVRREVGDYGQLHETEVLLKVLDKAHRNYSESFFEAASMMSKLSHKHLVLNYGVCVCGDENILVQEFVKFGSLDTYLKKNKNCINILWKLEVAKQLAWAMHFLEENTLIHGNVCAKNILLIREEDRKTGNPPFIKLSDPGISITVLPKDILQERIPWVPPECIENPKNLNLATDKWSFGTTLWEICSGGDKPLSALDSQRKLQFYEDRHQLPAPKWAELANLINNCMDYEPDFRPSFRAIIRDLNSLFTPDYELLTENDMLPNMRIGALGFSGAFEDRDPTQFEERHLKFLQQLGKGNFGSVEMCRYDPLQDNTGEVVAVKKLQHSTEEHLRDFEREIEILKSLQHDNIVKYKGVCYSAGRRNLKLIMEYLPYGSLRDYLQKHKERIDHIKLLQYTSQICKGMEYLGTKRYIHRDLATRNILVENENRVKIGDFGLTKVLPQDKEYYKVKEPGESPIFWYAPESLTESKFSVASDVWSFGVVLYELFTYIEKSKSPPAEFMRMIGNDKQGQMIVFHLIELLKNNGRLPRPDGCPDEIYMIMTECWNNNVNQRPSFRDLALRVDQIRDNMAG

inhibition at 10 µM (CaMK2d): 90.4%
inhibition at 10 µM (GCK): 96.5%
Competition % (JAK1): 97.8%
Competition % (JAK2): 96.8%
inhibition at 10 µM (MAP3K3): 97.6%
SMILES: CS(=O)(=O)Nc1ccccc1Nc1nc(Nc2cccc(OCCN)c2)ncc1Cl [CZC31326, N-(2-(2-(3-(2-aminoethoxy)phenylamino)-5-chloropyrimidin-4-ylamino)phenyl)methanesulfonamide]
